Measured values: US8658604B2, “Template-fixed beta-hairpin peptidomimetics with protease inhibitory activity” (Polyphor Ltd, priority 2005, dated 2014)
Where a SMILES comes first, the peptide text is derived from it.

These molecules were tested against T1, Elastase from human neutrophils (Homo sapiens, UniProt P08246) (assay: Enzymatic assay, elastase). Conditions: Elastase IC50.
T1 sequence (P08246 30-267): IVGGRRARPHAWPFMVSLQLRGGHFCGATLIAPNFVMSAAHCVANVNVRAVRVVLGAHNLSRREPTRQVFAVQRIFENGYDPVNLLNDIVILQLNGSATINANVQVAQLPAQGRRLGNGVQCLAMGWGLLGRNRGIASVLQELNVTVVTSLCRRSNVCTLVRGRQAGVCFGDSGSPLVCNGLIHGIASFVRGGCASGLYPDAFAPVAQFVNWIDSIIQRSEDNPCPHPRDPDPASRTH

Compound	IC50 [nM]
CC[C@H](C)[C@@H]1NC(=O)[C@@H]2CCCN2C(=O)[C@H]2CCCN2C(=O)[C@H](Cc2ccc(O)cc2)NC(=O)[C@@H]2CSSC[C@H](NC1=O)C(=O)N[C@@H]([C@@H](C)O)C(=O)N[C@@H](C)C(=O)N[C@@H](CO)C(=O)N[C@@H](CC(C)C)C(=O)N1CCC[C@H]1C(=O)N1CCC[C@H]1C(=O)N[C@@H](CCC(N)=O)C(=O)N2 [Ex. 76] (HELM PEPTIDE1{I.C.T.A.S.L.P.P.Q.C.Y.[dP].P}$PEPTIDE1,PEPTIDE1,2:R3-10:R3|PEPTIDE1,PEPTIDE1,1:R1-13:R2$$$V2.0)	71
CCCC[C@@H]1NC(=O)[C@@H]2CCCN2C(=O)[C@H]2CCCN2C(=O)[C@H](Cc2ccc(O)cc2)NC(=O)[C@@H]2CSSC[C@H](NC1=O)C(=O)N[C@@H]([C@@H](C)O)C(=O)N[C@@H]([C@@H](C)O)C(=O)N[C@@H](CO)C(=O)N[C@@H]([C@@H](C)CC)C(=O)N1CCC[C@H]1C(=O)N1CCC[C@H]1C(=O)N[C@@H](Cc1ccc(O)cc1)C(=O)N2 [Ex. 77] (HELM PEPTIDE1{[Nle].C.T.T.S.I.P.P.Y.C.Y.[dP].P}$PEPTIDE1,PEPTIDE1,2:R3-10:R3|PEPTIDE1,PEPTIDE1,1:R1-13:R2$$$V2.0)	68
CCCC[C@@H]1NC(=O)[C@@H]2CCCN2C(=O)[C@H]2CCCN2C(=O)[C@H](Cc2ccc(O)cc2)NC(=O)[C@@H]2CSSC[C@H](NC1=O)C(=O)N[C@@H]([C@@H](C)O)C(=O)N[C@@H](C)C(=O)N[C@@H](CO)C(=O)N[C@@H](CCCC)C(=O)N1CCC[C@H]1C(=O)N1CCC[C@H]1C(=O)N[C@@H](CCC(N)=O)C(=O)N2 [Ex. 79] (HELM PEPTIDE1{[Nle].C.T.A.S.[Nle].P.P.Q.C.Y.[dP].P}$PEPTIDE1,PEPTIDE1,2:R3-10:R3|PEPTIDE1,PEPTIDE1,1:R1-13:R2$$$V2.0)	66
CCCC[C@@H]1NC(=O)[C@@H]2CCCN2C(=O)[C@H]2CCCN2C(=O)[C@H](CCCC)NC(=O)[C@@H]2CSSC[C@H](NC1=O)C(=O)N[C@@H]([C@@H](C)O)C(=O)N[C@@H](C)C(=O)N[C@@H](CO)C(=O)N[C@@H]([C@@H](C)CC)C(=O)N1CCC[C@H]1C(=O)N1CCC[C@H]1C(=O)N[C@@H](CCC(N)=O)C(=O)N2 [Ex. 94] (HELM PEPTIDE1{[Nle].C.T.A.S.I.P.P.Q.C.[Nle].[dP].P}$PEPTIDE1,PEPTIDE1,2:R3-10:R3|PEPTIDE1,PEPTIDE1,1:R1-13:R2$$$V2.0)	50
CC[C@H](C)[C@@H]1NC(=O)[C@H](CO)NC(=O)[C@H](C)NC(=O)[C@H]([C@@H](C)O)NC(=O)[C@@H]2CSSC[C@H](NC(=O)[C@H](CCC(N)=O)NC(=O)[C@@H]3CCCN3C(=O)[C@@H]3CCCN3C1=O)C(=O)N[C@@H](Cc1ccc(O)cc1)C(=O)N1CCC[C@@H]1C(=O)N1CCC[C@H]1C(=O)N[C@@H](C1CCCCC1)C(=O)N2 [Ex. 101] (HELM PEPTIDE1{[O=C([C@@H](N[*:1])C1CCCCC1)[*:2]].C.T.A.S.I.P.P.Q.C.Y.[dP].P}$PEPTIDE1,PEPTIDE1,2:R3-10:R3|PEPTIDE1,PEPTIDE1,1:R1-13:R2$$$V2.0)	49
CCCC[C@@H]1NC(=O)[C@@H]2CCCN2C(=O)[C@H]2CCCN2C(=O)[C@H](Cc2ccc(O)cc2)NC(=O)[C@H](CCCNC(=N)N)NC(=O)[C@H](CCC(N)=O)NC(=O)[C@@H]2CCCN2C(=O)[C@@H]2CCCN2C(=O)[C@H]([C@@H](C)CC)NC(=O)[C@H](CO)NC(=O)[C@H](C)NC(=O)[C@H]([C@@H](C)O)NC(=O)[C@H](CCC(=O)O)NC1=O [Ex. 105] (HELM PEPTIDE1{[Nle].E.T.A.S.I.P.P.Q.R.Y.[dP].P}$PEPTIDE1,PEPTIDE1,1:R1-13:R2$$$V2.0)	34
CCCC[C@@H]1NC(=O)[C@@H]2CCCN2C(=O)[C@H]2CCCN2C(=O)[C@H](Cc2ccc(O)cc2)NC(=O)[C@H](CCCCN)NC(=O)[C@H](CCC(N)=O)NC(=O)[C@@H]2CCCN2C(=O)[C@@H]2CCCN2C(=O)[C@H]([C@@H](C)CC)NC(=O)[C@H](CO)NC(=O)[C@H](C)NC(=O)[C@H]([C@@H](C)O)NC(=O)[C@H]([C@@H](C)O)NC1=O [Ex. 106] (HELM PEPTIDE1{[Nle].T.T.A.S.I.P.P.Q.K.Y.[dP].P}$PEPTIDE1,PEPTIDE1,1:R1-13:R2$$$V2.0)	49
CCCC[C@@H]1NC(=O)[C@@H]2CCCN2C(=O)[C@H]2CCCN2C(=O)[C@H](Cc2ccc(O)cc2)NC(=O)[C@H](CCCNC(=N)N)NC(=O)[C@H](CCC(N)=O)NC(=O)[C@@H]2CCCN2C(=O)[C@@H]2CCCN2C(=O)[C@H]([C@@H](C)CC)NC(=O)[C@H](CO)NC(=O)[C@H](C)NC(=O)[C@H]([C@@H](C)O)NC(=O)[C@H](CCC(N)=O)NC1=O [Ex. 107] (HELM PEPTIDE1{[Nle].Q.T.A.S.I.P.P.Q.R.Y.[dP].P}$PEPTIDE1,PEPTIDE1,1:R1-13:R2$$$V2.0)	51
CCCC[C@@H]1NC(=O)[C@@H]2CCCN2C(=O)[C@H]2CCCN2C(=O)[C@H](Cc2ccc(O)cc2)NC(=O)[C@H](CCSC)NC(=O)[C@H](CCC(N)=O)NC(=O)[C@@H]2CCCN2C(=O)[C@@H]2CCCN2C(=O)[C@H]([C@@H](C)CC)NC(=O)[C@H](CO)NC(=O)[C@H](C)NC(=O)[C@H]([C@@H](C)O)NC(=O)[C@H]([C@@H](C)O)NC1=O [Ex. 108] (HELM PEPTIDE1{[Nle].T.T.A.S.I.P.P.Q.M.Y.[dP].P}$PEPTIDE1,PEPTIDE1,1:R1-13:R2$$$V2.0)	31
CCCC[C@@H]1NC(=O)[C@@H]2CCCN2C(=O)[C@H]2CCCN2C(=O)[C@H](Cc2ccc(O)cc2)NC(=O)[C@H](CCC(N)=O)NC(=O)[C@H](CCC(N)=O)NC(=O)[C@@H]2CCCN2C(=O)[C@@H]2CCCN2C(=O)[C@H]([C@@H](C)CC)NC(=O)[C@H](CO)NC(=O)[C@H](C)NC(=O)[C@H]([C@@H](C)O)NC(=O)[C@H]([C@@H](C)O)NC1=O [Ex. 110] (HELM PEPTIDE1{[Nle].T.T.A.S.I.P.P.Q.Q.Y.[dP].P}$PEPTIDE1,PEPTIDE1,1:R1-13:R2$$$V2.0)	38
CCCC[C@@H]1NC(=O)[C@@H]2CCCN2C(=O)[C@H]2CCCN2C(=O)[C@H](Cc2ccc(O)cc2)NC(=O)[C@H](CO)NC(=O)[C@H](CCC(N)=O)NC(=O)[C@@H]2CCCN2C(=O)[C@@H]2CCCN2C(=O)[C@H]([C@@H](C)CC)NC(=O)[C@H](CO)NC(=O)[C@H](C)NC(=O)[C@H]([C@@H](C)O)NC(=O)[C@H](CCC(N)=O)NC1=O [Ex. 111] (HELM PEPTIDE1{[Nle].Q.T.A.S.I.P.P.Q.S.Y.[dP].P}$PEPTIDE1,PEPTIDE1,1:R1-13:R2$$$V2.0)	46
CCCC[C@@H]1NC(=O)[C@@H]2CCCN2C(=O)[C@H]2CCCN2C(=O)[C@H](Cc2ccc(O)cc2)NC(=O)[C@@H]2CSSC[C@H](NC1=O)C(=O)N[C@@H]([C@@H](C)O)C(=O)N[C@@H](C)C(=O)N[C@@H](CO)C(=O)N[C@@H](CC(C)C)C(=O)N1CCC[C@H]1C(=O)N1CCC[C@H]1C(=O)N[C@@H](Cc1ccc(O)cc1)C(=O)N2 [Ex. 113] (HELM PEPTIDE1{[Nle].C.T.A.S.L.P.P.Y.C.Y.[dP].P}$PEPTIDE1,PEPTIDE1,2:R3-10:R3|PEPTIDE1,PEPTIDE1,1:R1-13:R2$$$V2.0)	35
CCCC[C@@H]1NC(=O)[C@@H]2CCCN2C(=O)[C@@H](CO)NC(=O)[C@H](Cc2ccc(O)cc2)NC(=O)[C@@H]2CSSC[C@H](NC1=O)C(=O)N[C@@H]([C@@H](C)O)C(=O)N[C@@H](C)C(=O)N[C@@H](CO)C(=O)N[C@@H]([C@@H](C)CC)C(=O)N1CCC[C@H]1C(=O)N1CCC[C@H]1C(=O)N[C@@H](CCC(N)=O)C(=O)N2 [Ex. 118] (HELM PEPTIDE1{A.S.I.P.P.Q.C.Y.[dS].P.[Nle].C.T}$PEPTIDE1,PEPTIDE1,7:R3-12:R3|PEPTIDE1,PEPTIDE1,1:R1-13:R2$$$V2.0)	43
